Assay results: patent US20190388381A1, “METHODS OF INHIBITING CISD PROTEIN-PLP COMPLEX FORMATION” (priority 2018, published 2019)
“Also recorded” adds a separate entry of the source. Values belong to the compound of their own block, whether it stands above or below them.

Key:
mitoNEET [1] = target: T1, mitoNEET (Homo sapiens, UniProt Q9NZ45); assay: Thermal shift analysis (SYPRO Orange) of mitoNEET; assay type: binding; conditions: changing concentrations of nucleotide
T1 sequence (Q9NZ45 33-108 limits assumed): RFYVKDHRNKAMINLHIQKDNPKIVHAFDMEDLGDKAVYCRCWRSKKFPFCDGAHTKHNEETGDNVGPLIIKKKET

mitoNEET [2] = target: T1, mitoNEET; assay: Competitive spectrophotometric assay of mitoNEET⋅PLP complex formation; assay type: biochemical; conditions: for Effect on mitoNEET⋅PLP complex formation: signal at λ=380 nm (unbound PLP) with increasing compound concentration
PLP⋅mitoNEET complex = target: T2, PLP⋅mitoNEET complex (Homo sapiens, UniProt Q9NZ45); assay: Reaction of candidate amino acid substrates with the PLP⋅mitoNEET complex, followed by spectrophotometry; assay type: biochemical; conditions: internal aldimine at λ=410 nm, signal at λ=330 nm, over 5000 sec
T2 sequence (Q9NZ45 33-108 limits assumed): T1 sequence (Q9NZ45 33-108 limits assumed)
Excerpt: After PLP binding to the protein, the next step in many PLP-catalyzed enzymatic reactions is the formation of an external aldimine with one of several amino acid substrate such as cysteine, serine, alanine, or aspartate. Subsequently, an amazing diversity of chemistry can occur using this versatile coenzyme including transamination, racemization, and α,β-elimination. L-cysteine was selected as a first candidate substrate considering the previously shown reactivity of mitoNEET cysteine residues in the formation of mixed disulfide bonds. L-cysteine (0.5 mM) was added to the PLP⋅mitoNEET complex and the reaction was followed by spectrophotometry over 5000 sec.

mitoNEET [3] = target: T3, mitoNEET (Homo sapiens, UniProt Q9NZ45); assay: Proteomic analysis of mitoNEET lysine residues modified by PLP; assay type: biochemical; conditions: 2.0 molar equivalents of PLP, 20 minutes, PBS pH 7.5
T3 construct: Considering the presence of ten lysine residues in the soluble portion of mitoNEET
T3 sequence (Q9NZ45 32-108 limits assumed): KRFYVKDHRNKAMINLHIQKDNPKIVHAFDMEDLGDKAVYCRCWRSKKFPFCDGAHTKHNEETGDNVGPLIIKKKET
Experimental: Considering the presence of ten lysine residues in the soluble portion of mitoNEET, non-specific binding of PLP was a concern (PDB code 3EW0). Therefore, mitoNEET was treated with 2.0 molar equivalents of PLP over 20 minutes in phosphate buffered saline (PBS) at pH 7.5 and the reacted protein was analyzed by proteomics. […] Next, the product(s) were degraded by tryptic digest, separated by liquid chromatography, analyzed by tandem mass spectrometry, and the data deconvoluted by proteomic analysis (courtesy of Indiana University Medical School Proteomics Core).

mitoNEET [4] = target: T1, mitoNEET; assay: Spectroscopic kinetics of modification of mitoNEET by PLP; assay type: biochemical; conditions: in contrast to PLP; data not shown
Excerpt: The initial discovery was made that CISD proteins bind PLP at a specific lysine residue that is in close proximity to the [2Fe-2S] cluster. PLP modifies the active site lysine residue of PLP-dependent enzymes forming the internal aldimine. In mitoNEET, PLP selectively modifies Lys55. While Lys55 was hypothesized to play a role in the reduction potential and stability of the [2Fe-2S] cluster in mitoNEET, its role as the binding site of PLP is novel to this work. MitoNEET was previously not known or classified as a PLP-dependent enzyme. Referring to FIG. 2, the formation of the mitoNEET⋅PLP and NAF-1⋅PLP complexes can be followed spectroscopically by the accumulation of a signal at λ=435 nm which is consistent with the ketoenamine tautomer and the attenuation of the signal at λ=380 nm which signifies the free PLP molecule. Concurrently with the increase of signal at λ=435 nm, an increase at λ=280 nm is also observed, but the chemical species contributing to this signal is currently unknown. In contrast to PLP, no reactivity of mitoNEET towards the non-phosphorylated pyridoxal (data not shown) was observed. […] An analogous lysine (Lys78) on NAF-1 is the analogous site for that protein.

Compound: Nc1ncnc2c1ncn2[C@@H]1O[C@H](COP(=O)(O)OP(=O)(O)O)[C@@H](O)[C@H]1O [ADP, adenosine diphosphate]
- Effect on mitoNEET thermal stability (mitoNEET [1]): do not significantly affect the thermal shift profile

Compound: Nc1ncnc2c1ncn2[C@@H]1O[C@H](COP(=O)(O)O)[C@@H](O)[C@H]1O [AMP, adenosine monophosphate]
- Effect on mitoNEET⋅PLP complex formation (mitoNEET [2]): no binding at Lys55; also recorded: does not correspond with an increase in the signal at λ=380 nm
- Effect on mitoNEET thermal stability (mitoNEET [1]): do not significantly affect the thermal shift profile

Compound: N[C@H](CS)C(=O)O [D-cysteine]
- Reaction with the PLP⋅mitoNEET complex (PLP⋅mitoNEET complex): also reacts with the PLP⋅mitoNEET complex (albeit at a slower rate)

- Reaction with the PLP⋅mitoNEET complex (PLP⋅mitoNEET complex): degradation of the internal aldimine
Compound: N[C@@H](CS)C(=O)O [L-cysteine]

- Reaction with the PLP⋅mitoNEET complex (PLP⋅mitoNEET complex): did not react
Compound: N[C@@H](COP(=O)(O)O)C(=O)O [L-phosphoserine]

- Reaction with the PLP⋅mitoNEET complex (PLP⋅mitoNEET complex): did not react
Compound: N[C@@H](CO)C(=O)O [L-serine]

- Percent Modified, lysine residue position 55 (mitoNEET [3]): 48.1%
- Percent Modified, lysine residue position 68 (mitoNEET [3]): 7.6%
- Percent Modified, lysine residue position 79 (mitoNEET [3]): 6.1%
- Percent Modified, lysine residue position 89 (mitoNEET [3]): 2.5%
- Percent Modified, lysine residue position 104 (mitoNEET [3]): 1.5%
Compound: Cc1ncc(COP(=O)(O)O)c(C=O)c1O [PLP, pyridoxal-5′-phosphate]

Compound: NS(=O)(=O)c1cc(C(=O)O)c(NCc2ccco2)cc1Cl [furosemide]
- Formation of mitoNEET⋅PLP complex after pre-treatment (mitoNEET [2]; signal at 435 nm, pre-treatment with compound): lack of formation of mitoNEET⋅PLP complex
- Effect on mitoNEET⋅PLP complex formation (mitoNEET [2]): competitive binding; also recorded: prohibits the mitoNEET⋅PLP complex formation
- Effect on mitoNEET⋅PLP complex formation (mitoNEET [2]; listed as Furosemide): block the formation of the mitoNEET⋅PLP complex in a concentration dependent manner

- Reactivity of mitoNEET towards compound (mitoNEET [4]): no reactivity
Compound: Cc1ncc(CO)c(C=O)c1O [pyridoxal]
